How the values were obtained:
CHO-K1/GLUT4 cells = assay: Quantification of GLUT4 translocation ratio (IN Cell Analyzer 1000); assay type: cell-based
Experimental: CHO-K1 cells are transfected with pEGFPN1-GLUT4-myc plasmid using Lipofectamine 2000, and subsequently screened with G418 (800 µg/ml). The CHO-K1/GLUT4 stable cell line is obtained by picking up clones.
CHO-K1/GLUT4 cells are seeded into 96-well plate. After cells reached 100% confluence, F12 medium is changed to 3T3-L1 medium and incubated for 2 days. 8-hour serum starvation later, cells are stimulated with insulin for 5 minutes, fixed with 3.7% formaldehyde for 15 minutes, and labeled with anti-myc monoclonal antibody and secondary antibody (Alexa Fluor 647 conjuncted anti-mouse antibody). Fluorescence pictures were obtained by IN Cell Analyzer 1000 Instrument (GE Healthcare) with the same exposure time. The basic unit comprises several core components including a Nikon microscope and a high-resolution CCD camera. Membrane-located GLUT4 is represented by the intensity of red fluorescence (Alex fluor 647) and normalized by the intensity of green fluorescence (GLUT4-EGFP), which is assigned to the total GLUT4 [46].

CD45 = biological target: T1, CD45 (Homo sapiens, UniProt P08575); assay: PTP enzyme inhibition assay (pNPP substrate); assay type: biochemical; conditions: PTPs 0.3 µM, pNPP 5 mM, 25°C; NI: No inhibition at 100 µM
T1 construct: pGEX2T-CD45_560–1256; GST (N); made in house; host or cells: E. coli BL21 (DE3)
T1 sequence (P08575 610-1306 limits assumed): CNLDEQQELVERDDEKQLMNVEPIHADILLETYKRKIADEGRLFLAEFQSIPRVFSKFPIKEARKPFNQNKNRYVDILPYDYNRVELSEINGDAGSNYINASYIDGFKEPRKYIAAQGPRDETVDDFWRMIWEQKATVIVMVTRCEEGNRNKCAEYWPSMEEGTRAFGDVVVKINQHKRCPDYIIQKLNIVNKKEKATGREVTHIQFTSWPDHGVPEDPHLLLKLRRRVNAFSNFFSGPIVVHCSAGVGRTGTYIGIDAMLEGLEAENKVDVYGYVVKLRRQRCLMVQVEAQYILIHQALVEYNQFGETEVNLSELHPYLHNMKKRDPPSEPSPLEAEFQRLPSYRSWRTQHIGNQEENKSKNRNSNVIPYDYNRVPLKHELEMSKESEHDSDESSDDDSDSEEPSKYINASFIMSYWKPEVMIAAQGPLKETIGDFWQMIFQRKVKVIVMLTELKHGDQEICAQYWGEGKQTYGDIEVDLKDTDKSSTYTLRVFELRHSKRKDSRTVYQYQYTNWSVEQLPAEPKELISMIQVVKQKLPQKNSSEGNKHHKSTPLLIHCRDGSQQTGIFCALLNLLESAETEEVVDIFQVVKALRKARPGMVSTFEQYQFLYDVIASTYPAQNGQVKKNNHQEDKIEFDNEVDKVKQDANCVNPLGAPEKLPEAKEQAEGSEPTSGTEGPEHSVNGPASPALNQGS
Experimental: (§1) The enzymatic activities of the recombinant PTPs are measured at 25°C using pNPP as substrate. The initial velocities of enzymatic reactions are determined by continuously measuring the absorbance at 405 nm every 15 s using a microplate spectrophotometer (Bio-Rad). […] To determine the inhibition type, each concentration of Rut (0, 50 and 75 µM) is incubated with PTP1B (0.3 µM) in reaction buffer (50 mM HEPES, pH7.0, 1 mM EDTA, and 100 mM NaCl) for 10 min and the reactions are initiated by different concentrations of pNPP (0.5–10 mM). The inhibition type is determined using double-reciprocal plots. In determination of the selectivity of Rut against PTPs, the result is referred as no inhibition when 100 µM Rut inhibits no enzyme activity. The same reaction systems are designed for all PTPs including PTP1B.

LAR = biological target: T2, LAR (Homo sapiens, UniProt P10586); assay: PTP enzyme inhibition assay (pNPP substrate); assay type: biochemical; conditions: read-out: IC50 LAR; PTPs 0.3 µM, pNPP 5 mM, 25°C; NI: No inhibition at 100 µM
T2 construct: pGEX2T-LAR1282–1888; GST (N); made in house; host or cells: E. coli BL21 (DE3)
T2 sequence (P10586 1301-1907 limits assumed): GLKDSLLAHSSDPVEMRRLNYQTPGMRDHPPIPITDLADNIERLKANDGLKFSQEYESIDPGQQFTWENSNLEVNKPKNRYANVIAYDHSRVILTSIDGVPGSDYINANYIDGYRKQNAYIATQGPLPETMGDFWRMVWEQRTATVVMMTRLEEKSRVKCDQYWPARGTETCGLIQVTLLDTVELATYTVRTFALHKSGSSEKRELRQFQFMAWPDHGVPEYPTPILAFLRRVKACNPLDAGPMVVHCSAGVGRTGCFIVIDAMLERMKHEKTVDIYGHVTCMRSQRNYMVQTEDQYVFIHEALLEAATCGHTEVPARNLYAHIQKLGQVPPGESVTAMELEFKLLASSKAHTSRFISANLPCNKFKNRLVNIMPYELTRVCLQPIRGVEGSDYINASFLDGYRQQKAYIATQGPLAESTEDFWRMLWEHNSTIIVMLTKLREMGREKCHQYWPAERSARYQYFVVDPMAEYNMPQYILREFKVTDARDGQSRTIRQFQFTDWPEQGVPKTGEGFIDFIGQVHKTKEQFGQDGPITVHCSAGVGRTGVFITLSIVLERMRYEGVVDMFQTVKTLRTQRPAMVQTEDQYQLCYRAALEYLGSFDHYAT
Experimental: as §1

PTP1B = biological target: T3, PTP1B (Homo sapiens, UniProt P18031); assay: PTP enzyme inhibition assay (pNPP substrate); assay type: biochemical
T3 construct: pGEX4T-1-PTP1B1–321; GST (N); made in house; host or cells: E. coli BL21 (DE3)
T3 sequence (P18031 1-321): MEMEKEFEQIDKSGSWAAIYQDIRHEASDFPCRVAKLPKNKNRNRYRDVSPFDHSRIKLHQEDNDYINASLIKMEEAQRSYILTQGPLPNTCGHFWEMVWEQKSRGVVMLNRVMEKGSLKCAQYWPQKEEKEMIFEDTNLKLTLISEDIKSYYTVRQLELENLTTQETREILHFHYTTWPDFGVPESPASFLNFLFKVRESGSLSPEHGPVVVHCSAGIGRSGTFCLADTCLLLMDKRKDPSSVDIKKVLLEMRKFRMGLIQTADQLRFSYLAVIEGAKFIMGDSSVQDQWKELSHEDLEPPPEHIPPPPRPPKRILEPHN
Experimental: as §1

PTPα = biological target: T4, PTPα (Homo sapiens, UniProt P18433); assay: PTP enzyme inhibition assay (pNPP substrate); assay type: biochemical; conditions: read-out: IC50 PTPα; PTPs 0.3 µM, pNPP 5 mM, 25°C; NI: No inhibition at 100 µM
T4 construct: pGEX2T-PTPα182–803; GST (N); made in house; host or cells: E. coli BL21 (DE3)
Experimental: as §1

TC-PTP = biological target: T5, TC-PTP (Homo sapiens, UniProt P17706); assay: PTP enzyme inhibition assay (pNPP substrate); assay type: biochemical; conditions: PTPs 0.3 µM, pNPP 5 mM, 25°C; NI: No inhibition at 100 µM
T5 construct: pGEX4T-1-TC-PTP1–288; GST (N); made in house; host or cells: E. coli BL21 (DE3)
T5 sequence (P17706 1-288): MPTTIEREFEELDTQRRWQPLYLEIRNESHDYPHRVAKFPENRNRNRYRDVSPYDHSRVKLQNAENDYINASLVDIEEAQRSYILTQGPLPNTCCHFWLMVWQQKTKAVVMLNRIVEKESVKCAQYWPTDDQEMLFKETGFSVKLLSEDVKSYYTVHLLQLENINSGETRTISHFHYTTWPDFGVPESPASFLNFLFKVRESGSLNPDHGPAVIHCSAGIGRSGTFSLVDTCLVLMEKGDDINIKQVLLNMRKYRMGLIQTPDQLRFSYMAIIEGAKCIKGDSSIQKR
Experimental: as §1

SRC1_613–773 = biological target: T6, SRC1_613–773 (Homo sapiens, UniProt Q15788); assay: SPR (Biacore) binding assay, control; conditions: SPR control experiment
T6 construct: The plasmid pET15b-SRC1_613–773 is constructed with NdeI-BamHI sites; His-tag (N); made in house; host or cells: E. coli BL21 (DE3)
T6 sequence (Q15788 613-773): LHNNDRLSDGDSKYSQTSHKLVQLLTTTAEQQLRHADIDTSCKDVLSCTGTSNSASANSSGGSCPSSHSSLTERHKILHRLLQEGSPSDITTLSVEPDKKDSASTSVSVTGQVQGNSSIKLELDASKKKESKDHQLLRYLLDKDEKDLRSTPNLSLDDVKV
Experimental: Binding affinities of Rut towards proteins are analyzed using SPR technology based Biacore 3000 instrument (GE Healthcare). In the assay, proteins are immobilized to CM5 chips using a standard amine-coupling procedure (Biacore manual). The proteins to be covalently bound to the chips are diluted in 10 mM sodium acetate buffer (pH4.5) to a final concentration of 0.10 mg/ml. Before experiments, baseline is equilibrated with a continuous flow of running buffer (10 mM HEPES, 150 mM NaCl, 3 mM EDTA, and 0.005% (v/v) surfactant P20, pH7.4) for 2 hours. Subsequently, Rut with a gradient of concentrations is injected to the channels at a flow rate of 20 µL/min for 60 seconds, followed by disassociation for 120 seconds. The 1∶1 Langmuir binding fitting model in BIAevaluation software version 3.1 (Biacore) is used to determine the equilibrium dissociation constants (K Ds) of compounds. For SRC1 recruitment assay, purified SRC1_613–773 is immobilized to a CM5 chip. Different concentrations of PPARγ-LBD or RXRα-LBD are injected to the channel at a flow rate of 20 µL/min for 60 s, followed by disassociation for 120 s. To further detect the effects of Rut on PPARγ-LBD/SRC1 or RXRα-LBD/SRC1 interactions, 1 µM PPARγ-LBD or RXRα-LBD is incubated with Rut (16.8–100 µM) for 1 hour, and then injected onto the chip.

C=CC(C)(C)c1cc2cc3c(cc2oc1=O)O[C@H](C(C)(C)OC(C)=O)C3 [(+)-Rutamarin]
EC50 (CHO-K1/GLUT4 cells; Cricetulus griseus, CHO-K1, cells pre-treated with Rut 8 hours, then insulin (170 nM) 5 minutes, read-out: EC50, enhancement of insulin-induced GLUT4 translocation): 7 µM
basal GLUT4 translocation without insulin induction (CHO-K1/GLUT4 cells; Rut 20 µM, 8 h): induces basal GLUT4 translocation
effect on pervanadate-stimulated GLUT4 translocation (CHO-K1/GLUT4 cells; Rut 20 µM, pervanadate 100 µM): cannot enhance
enhancement on insulin-induced GLUT4 translocation compared with compound-2 and pervanadate (CHO-K1/GLUT4 cells; insulin 170 nM, C2 10 µM, pervanadate 100 µM, Rut 5, 10, 20 µM): even stronger
IC50 (CD45): > 100 µM
IC50 (LAR): > 100 µM
IC50 (PTP1B; PTPs 0.3 µM, pNPP 5 mM, 25°C, NI: No inhibition at 100 µM): 6.4 µM
inhibition type (Lineweaver-Burk, double-reciprocal plots) (PTP1B; Rut 0, 50 and 75 µM, pNPP 0.5–10 mM): competitive inhibitor
IC50 (PTPα): > 100 µM
IC50 (TC-PTP): 26.8 µM
binding to SRC1 (SRC1_613–773): does not bind

Source: publication PMC3288053 (PLoS ONE, 2012)
